Read-outs that look alike come from different tables or passages of the source.
Tests used:
[1] = target: Syk (Homo sapiens, UniProt P43405); test: Kinase selectivity assay (CEREP, HTRF); assay type: biochemical; settings: read-out: % Inhibition at 10 μM Concentration
Protocol: (§1) The inhibitory activity of selected compounds was evaluated against a panel of 45 different kinase enzymes by CEREP, France. The assays were performed using standard HTRF assay methods as documented by CEREP against the human orthologues of Abl kinase, Akt1/PKBa, AMPKa, BMX kinase (Etk), Brk, CaMK2a, CaMK4, CDC2/CDK1 (cycB), CHK1, CHK2, c-Met kinase, CSK, EphB4 kinase, ERK1, ERK2 (P42mapk), FGFR2 kinase, FGFR4 kinase, FLT-1 kinase (VEGFR1), FLT-3 kinase, Fyn kinase, IGF1R kinase, IRK (InsR), JNK 2, KDR kinase (VEGFR2), Lck kinase, Lyn kinase, MAPKAPK2, MEK1/MAP2K1, p38a kinase, p38d kinase, p38g kinase, PDGFRb kinase, PDK1, PKA, PKCa, PKCb1, PKCb2, PKCg, Ret kinase, ROCK2, RSK2, Src kinase, Syk, and TRKA. The % Inhibition was determined by the formula; % Inhibition=100×(1−(experimental value−background value)/(high activity control−background value)).

[2] = target: IGF1R (Homo sapiens, UniProt P08069); test: Kinase selectivity assay (CEREP, HTRF); assay type: biochemical; settings: read-out: % Inhibition at 10 μM Concentration
Protocol: as §1

[3] = target: PKCbeta 1 (Homo sapiens, UniProt P05771); test: Kinase selectivity assay (CEREP, HTRF); assay type: biochemical; settings: read-out: % Inhibition at 10 μM Concentration
Protocol: as §1

[4] = test system: HCC1954 basal breast cancer cell line; test: Cell growth inhibition, Sulforhodamine B (SRB) assay; assay type: cell-based; settings: Homo sapiens
Protocol: Aliquots (20 μl) from each concentration were overlaid to 80 μl of the pre-seeded cells in the 96-plates to make final concentrations of 10 nM to 50 μM. The cells were cultured for 5 days before the Sulforhodamine B (SRB) assay was performed to determine the compound's cell growth inhibition activity.
Sulforhodamine B (Sigma, Canada) is a water-soluble dye that binds to the basic amino acids of cellular proteins. Thus, colorimetric measurement of the bound dye provides an estimate of the total protein mass that is related to the cell number. The cells are fixed in situ by gently aspirating off the culture media and adding 50 μl ice cold 10% Trichloroacetic Acid (TCA) per well and incubated at 4° C. for 30-60 min. The plates are washed with water five times and allowed to air dry for 5 min. Addition of 50 μl 0.4% (w/v) SRB solution in 1% (v/v) acetic acid to each well and incubatation for […] at RT completes the staining reaction. Following staining, plates are washed four times with 1% acetic acid to remove unbound dye and then allowed to air dry for 5 min. […] Absorbance is read at 570 nm.
The percentage (%) of relative growth inhibition was calculated by comparing to DMSO-treated only cells (100%). GI50's were determined for compounds with cytotoxic activity. The GI50 was calculated using GraphPad PRISM software (GraphPad Software, Inc., USA).
The SRB assay described above was used to assay test compounds against the extended panel (Table 6).

[5] = target: Lyn (Homo sapiens, UniProt P07948); test: Kinase selectivity assay (CEREP, HTRF); assay type: biochemical; settings: read-out: % Inhibition at 10 μM Concentration
Protocol: as §1

[6] = target: Akt1/PKBalpha (Homo sapiens, UniProt P31749); test: Kinase selectivity assay (CEREP, HTRF); assay type: biochemical; settings: read-out: % Inhibition at 10 μM Concentration
Protocol: as §1

[7] = target: CaMK4 (Homo sapiens, UniProt Q16566); test: Kinase selectivity assay (CEREP, HTRF); assay type: biochemical; settings: read-out: % Inhibition at 10 μM Concentration
Protocol: as §1

[8] = target: ERK (P42mapk) (Homo sapiens, UniProt P28482); test: Kinase selectivity assay (CEREP, HTRF); assay type: biochemical; settings: read-out: % Inhibition at 10 μM Concentration
Protocol: as §1

[9] = target: PKCbeta 2 (Homo sapiens, UniProt P05771); test: Kinase selectivity assay (CEREP, HTRF); assay type: biochemical; settings: read-out: % Inhibition at 10 μM Concentration
Protocol: as §1

[10] = target: Fyn (Homo sapiens, UniProt P06241); test: Kinase selectivity assay (CEREP, HTRF); assay type: biochemical; settings: read-out: % Inhibition at 10 μM Concentration
Protocol: as §1

[11] = target: Brk (Homo sapiens, UniProt Q13882); test: Kinase selectivity assay (CEREP, HTRF); assay type: biochemical; settings: read-out: % Inhibition at 10 μM Concentration
Protocol: as §1

[12] = target: CHK2 (Homo sapiens, UniProt O96017); test: Kinase selectivity assay (CEREP, HTRF); assay type: biochemical; settings: read-out: % Inhibition at 10 μM Concentration
Protocol: as §1

[13] = target: ERK1 (Homo sapiens, UniProt P27361); test: Kinase selectivity assay (CEREP, HTRF); assay type: biochemical; settings: read-out: % Inhibition at 10 μM Concentration
Protocol: as §1

[14] = target: PKA (Homo sapiens, UniProt P17612); test: Kinase selectivity assay (CEREP, HTRF); assay type: biochemical; settings: read-out: % Inhibition at 10 μM Concentration
Protocol: as §1

[15] = target: Lck (Homo sapiens, UniProt P06239); test: Kinase selectivity assay (CEREP, HTRF); assay type: biochemical; settings: read-out: % Inhibition at 10 μM Concentration
Protocol: as §1

[16] = target: c-Met (Homo sapiens, UniProt P08581); test: Kinase selectivity assay (CEREP, HTRF); assay type: biochemical; settings: read-out: % Inhibition at 10 μM Concentration
Protocol: as §1

[17] = target: JNK 2 (Homo sapiens, UniProt P45984); test: Kinase selectivity assay (CEREP, HTRF); assay type: biochemical; settings: read-out: % Inhibition at 10 μM Concentration
Protocol: as §1

[18] = target: p38alpha (Homo sapiens, UniProt Q16539); test: Kinase selectivity assay (CEREP, HTRF); assay type: biochemical; settings: read-out: % Inhibition at 10 μM Concentration
Protocol: as §1

[19] = target: MAPKAPK2 (Homo sapiens, UniProt P49137); test: Kinase selectivity assay (CEREP, HTRF); assay type: biochemical; settings: read-out: % Inhibition at 10 μM Concentration
Protocol: as §1

[20] = target: CSK (Homo sapiens, UniProt P41240); test: Kinase selectivity assay (CEREP, HTRF); assay type: biochemical; settings: read-out: % Inhibition at 10 μM Concentration
Protocol: as §1

[21] = target: FGFR4 (Homo sapiens, UniProt P22455); test: Kinase selectivity assay (CEREP, HTRF); assay type: biochemical; settings: read-out: % Inhibition at 10 μM Concentration
Protocol: as §1

[22] = target: FLT-1 (VEGFR1) (Homo sapiens, UniProt P17948); test: Kinase selectivity assay (CEREP, HTRF); assay type: biochemical; settings: read-out: % Inhibition at 10 μM Concentration
Protocol: as §1

[23] = target: PKCgamma (Homo sapiens, UniProt P05129); test: Kinase selectivity assay (CEREP, HTRF); assay type: biochemical; settings: read-out: % Inhibition at 10 μM Concentration
Protocol: as §1

[24] = target: p38gamma (Homo sapiens, UniProt P53778); test: Kinase selectivity assay (CEREP, HTRF); assay type: biochemical; settings: read-out: % Inhibition at 10 μM Concentration
Protocol: as §1

[25] = target: MEK1/MAP2K1 (Homo sapiens, UniProt Q02750); test: Kinase selectivity assay (CEREP, HTRF); assay type: biochemical; settings: read-out: % Inhibition at 10 μM Concentration
Protocol: as §1

[26] = target: PDK1 (Homo sapiens, UniProt O15530); test: Kinase selectivity assay (CEREP, HTRF); assay type: biochemical; settings: read-out: % Inhibition at 10 μM Concentration
Protocol: as §1

[27] = target: CaMK2alpha (Homo sapiens, UniProt Q9UQM7); test: Kinase selectivity assay (CEREP, HTRF); assay type: biochemical; settings: read-out: % Inhibition at 10 μM Concentration
Protocol: as §1

[28] = target: p38delta (Homo sapiens, UniProt O15264); test: Kinase selectivity assay (CEREP, HTRF); assay type: biochemical; settings: read-out: % Inhibition at 10 μM Concentration
Protocol: as §1

[29] = HCC1954, 120 h, read-out: Cell Line GI50 Range HCC1954

PKCbeta 1, sequence (P05771 whole entry): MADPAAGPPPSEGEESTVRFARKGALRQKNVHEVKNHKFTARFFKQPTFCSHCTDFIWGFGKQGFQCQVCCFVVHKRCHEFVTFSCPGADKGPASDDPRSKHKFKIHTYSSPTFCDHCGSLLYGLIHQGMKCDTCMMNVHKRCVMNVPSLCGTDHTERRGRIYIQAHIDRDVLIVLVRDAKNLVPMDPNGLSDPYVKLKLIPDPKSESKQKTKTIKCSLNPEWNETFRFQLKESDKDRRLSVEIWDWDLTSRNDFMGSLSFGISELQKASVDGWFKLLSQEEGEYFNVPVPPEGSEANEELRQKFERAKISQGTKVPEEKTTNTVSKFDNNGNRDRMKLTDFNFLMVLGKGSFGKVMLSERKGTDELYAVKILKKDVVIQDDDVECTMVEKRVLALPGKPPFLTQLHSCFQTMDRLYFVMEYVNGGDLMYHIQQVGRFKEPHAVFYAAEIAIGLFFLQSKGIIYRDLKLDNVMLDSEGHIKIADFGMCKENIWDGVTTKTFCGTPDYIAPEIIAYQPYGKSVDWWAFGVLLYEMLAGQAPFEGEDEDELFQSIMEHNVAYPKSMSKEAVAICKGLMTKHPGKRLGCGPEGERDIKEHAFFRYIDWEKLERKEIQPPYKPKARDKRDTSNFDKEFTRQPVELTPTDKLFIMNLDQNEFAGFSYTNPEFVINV
IGF1R, sequence (P08069 31-1367): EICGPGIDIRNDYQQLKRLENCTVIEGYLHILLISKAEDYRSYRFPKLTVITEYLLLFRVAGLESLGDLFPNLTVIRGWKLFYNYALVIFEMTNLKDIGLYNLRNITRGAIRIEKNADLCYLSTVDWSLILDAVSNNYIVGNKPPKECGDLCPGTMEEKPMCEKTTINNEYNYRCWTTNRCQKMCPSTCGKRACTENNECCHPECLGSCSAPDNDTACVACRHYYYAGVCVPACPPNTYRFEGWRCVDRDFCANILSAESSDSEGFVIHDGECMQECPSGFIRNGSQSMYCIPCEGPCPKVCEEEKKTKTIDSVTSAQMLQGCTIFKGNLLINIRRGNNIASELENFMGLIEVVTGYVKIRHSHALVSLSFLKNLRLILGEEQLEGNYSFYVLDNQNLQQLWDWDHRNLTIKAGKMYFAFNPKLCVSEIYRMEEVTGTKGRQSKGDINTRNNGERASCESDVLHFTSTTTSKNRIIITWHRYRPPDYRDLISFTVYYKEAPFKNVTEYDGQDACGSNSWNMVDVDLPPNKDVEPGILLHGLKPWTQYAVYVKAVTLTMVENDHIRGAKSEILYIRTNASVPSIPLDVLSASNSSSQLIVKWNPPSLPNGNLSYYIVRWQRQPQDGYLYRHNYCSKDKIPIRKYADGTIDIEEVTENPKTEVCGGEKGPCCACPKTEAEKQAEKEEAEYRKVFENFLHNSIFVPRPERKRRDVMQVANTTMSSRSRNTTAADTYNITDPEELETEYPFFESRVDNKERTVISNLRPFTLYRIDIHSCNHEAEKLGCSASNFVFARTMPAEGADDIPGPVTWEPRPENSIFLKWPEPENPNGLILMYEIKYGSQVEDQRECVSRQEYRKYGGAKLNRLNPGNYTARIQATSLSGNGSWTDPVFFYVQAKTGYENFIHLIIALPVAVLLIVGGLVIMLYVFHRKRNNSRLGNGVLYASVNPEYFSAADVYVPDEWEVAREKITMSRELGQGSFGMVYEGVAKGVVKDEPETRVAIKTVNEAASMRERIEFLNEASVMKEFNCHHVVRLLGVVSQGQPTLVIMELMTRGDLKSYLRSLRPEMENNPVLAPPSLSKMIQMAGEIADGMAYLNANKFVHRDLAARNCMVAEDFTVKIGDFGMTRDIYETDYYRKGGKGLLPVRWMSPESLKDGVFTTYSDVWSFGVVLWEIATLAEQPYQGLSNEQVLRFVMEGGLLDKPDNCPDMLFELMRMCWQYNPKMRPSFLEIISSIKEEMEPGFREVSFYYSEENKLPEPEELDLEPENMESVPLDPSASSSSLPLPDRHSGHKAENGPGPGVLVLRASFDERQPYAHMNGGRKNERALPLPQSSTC
p38alpha, sequence (Q16539 whole entry): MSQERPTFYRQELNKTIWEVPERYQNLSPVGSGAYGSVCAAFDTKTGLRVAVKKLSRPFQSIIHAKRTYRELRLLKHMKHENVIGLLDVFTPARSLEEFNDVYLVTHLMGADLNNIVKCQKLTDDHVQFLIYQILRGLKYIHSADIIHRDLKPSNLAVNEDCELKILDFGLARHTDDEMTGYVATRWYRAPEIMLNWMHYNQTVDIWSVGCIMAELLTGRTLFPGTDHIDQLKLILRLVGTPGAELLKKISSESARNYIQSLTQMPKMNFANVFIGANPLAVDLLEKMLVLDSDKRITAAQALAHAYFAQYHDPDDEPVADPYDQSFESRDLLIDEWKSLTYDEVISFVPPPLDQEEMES
FLT-1 (VEGFR1), sequence (P17948 27-1338): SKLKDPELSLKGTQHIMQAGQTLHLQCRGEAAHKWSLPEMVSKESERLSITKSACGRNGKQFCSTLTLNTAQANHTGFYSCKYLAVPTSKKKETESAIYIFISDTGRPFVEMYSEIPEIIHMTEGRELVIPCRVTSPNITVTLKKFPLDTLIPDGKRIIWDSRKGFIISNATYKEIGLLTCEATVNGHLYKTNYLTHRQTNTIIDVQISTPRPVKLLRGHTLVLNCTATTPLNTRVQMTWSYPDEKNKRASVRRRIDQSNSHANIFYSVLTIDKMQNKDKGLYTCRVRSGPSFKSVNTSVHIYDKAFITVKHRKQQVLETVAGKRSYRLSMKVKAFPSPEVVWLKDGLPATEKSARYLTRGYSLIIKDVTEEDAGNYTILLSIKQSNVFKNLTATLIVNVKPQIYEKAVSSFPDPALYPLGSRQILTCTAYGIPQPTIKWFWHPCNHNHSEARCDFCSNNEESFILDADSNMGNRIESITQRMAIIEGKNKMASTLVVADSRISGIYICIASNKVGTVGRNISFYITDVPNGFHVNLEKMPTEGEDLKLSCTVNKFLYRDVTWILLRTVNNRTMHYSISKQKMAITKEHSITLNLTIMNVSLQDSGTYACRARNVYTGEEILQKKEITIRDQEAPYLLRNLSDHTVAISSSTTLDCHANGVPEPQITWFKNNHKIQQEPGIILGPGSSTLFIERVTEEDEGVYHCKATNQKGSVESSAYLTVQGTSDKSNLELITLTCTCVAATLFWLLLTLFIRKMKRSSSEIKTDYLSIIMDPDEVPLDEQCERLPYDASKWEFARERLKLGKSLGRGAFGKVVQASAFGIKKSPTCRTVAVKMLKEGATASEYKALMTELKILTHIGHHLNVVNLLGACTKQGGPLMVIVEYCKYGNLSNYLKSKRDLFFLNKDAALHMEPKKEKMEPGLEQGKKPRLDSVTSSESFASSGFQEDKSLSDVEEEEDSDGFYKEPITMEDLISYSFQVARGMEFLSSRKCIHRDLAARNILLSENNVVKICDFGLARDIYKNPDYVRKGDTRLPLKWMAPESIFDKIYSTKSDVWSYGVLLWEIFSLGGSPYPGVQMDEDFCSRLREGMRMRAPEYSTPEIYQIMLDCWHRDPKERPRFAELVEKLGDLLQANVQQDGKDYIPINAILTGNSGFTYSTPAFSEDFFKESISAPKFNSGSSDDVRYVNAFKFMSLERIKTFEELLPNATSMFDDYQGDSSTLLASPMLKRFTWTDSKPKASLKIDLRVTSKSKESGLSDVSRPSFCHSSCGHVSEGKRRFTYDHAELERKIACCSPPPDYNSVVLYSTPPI
ERK (P42mapk), sequence (P28482 whole entry): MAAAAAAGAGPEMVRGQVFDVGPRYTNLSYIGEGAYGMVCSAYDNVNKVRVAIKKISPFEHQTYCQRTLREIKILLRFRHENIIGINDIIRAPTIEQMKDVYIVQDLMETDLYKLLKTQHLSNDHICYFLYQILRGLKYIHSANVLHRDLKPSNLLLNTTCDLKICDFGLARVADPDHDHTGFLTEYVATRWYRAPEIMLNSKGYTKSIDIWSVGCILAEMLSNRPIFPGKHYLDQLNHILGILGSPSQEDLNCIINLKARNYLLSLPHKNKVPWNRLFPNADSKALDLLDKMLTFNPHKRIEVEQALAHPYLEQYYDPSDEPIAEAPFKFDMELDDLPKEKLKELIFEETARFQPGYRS

COc1ccc2c(c1)[C@@]1(C[C@@H]1c1ccc3c(-c4ccc(N5CCN(C)CC5)nc4)n[nH]c3c1)C(=O)N2 (racemic) [Compound 2]
inhibition at 10 µM [1]: -1%
inhibition at 10 µM [2]: -3%
inhibition at 10 µM [3]: -2%
GI50 [4, 29]: < 5 µM

CN(C)Cc1ccc(/C=C/c2n[nH]c3cc([C@H]4C[C@@]45C(=O)Nc4ccccc45)ccc23)cc1 (racemic) [Compound 35]
inhibition at 10 µM [5]: 86%
inhibition at 10 µM [6]: -4%
inhibition at 10 µM [7]: -4%
inhibition at 10 µM [8]: 2%
inhibition at 10 µM [9]: 26%
inhibition at 10 µM [10]: 55%
inhibition at 10 µM [11]: 53%
inhibition at 10 µM [12]: -3%
inhibition at 10 µM [13]: 1%
inhibition at 10 µM [14]: -7%
inhibition at 10 µM [15]: 100%
inhibition at 10 µM [16]: 61%
inhibition at 10 µM ([2]; IGF1R, 10 μM): 0%
inhibition at 10 µM ([3]; PKCbeta 1, 10 μM): -2%
inhibition at 10 µM [17]: 5%
inhibition at 10 µM [18]: -22%
inhibition at 10 µM [19]: 2%
inhibition at 10 µM [20]: 75%
inhibition at 10 µM [21]: -12%
inhibition at 10 µM [22]: 30%
inhibition at 10 µM [23]: 10%
inhibition at 10 µM [24]: -5%
inhibition at 10 µM [25]: -2%
inhibition at 10 µM [26]: 2%
inhibition at 10 µM [27]: 9%
inhibition at 10 µM [28]: 5%
GI50 [4, 29]: < 5 µM

COc1ccc2c(c1)/C(=C\c1ccc3c(/C=C/c4ccc(N5CCN(C)CC5)nc4)n[nH]c3c1)C(=O)N2 [Compound 3]
inhibition at 10 µM [5]: -2%
inhibition at 10 µM [6]: -5%
inhibition at 10 µM [7]: 6%
inhibition at 10 µM [8]: 15%
inhibition at 10 µM [9]: 4%
inhibition at 10 µM [10]: 4%
inhibition at 10 µM [11]: -2%
inhibition at 10 µM [12]: -4%
inhibition at 10 µM ([1]; Syk, 10 μM): -1%
inhibition at 10 µM [13]: 2%
inhibition at 10 µM [14]: -5%
inhibition at 10 µM [15]: 13%
inhibition at 10 µM [16]: 2%
inhibition at 10 µM ([2]; IGF1R, 10 μM): 5%
inhibition at 10 µM ([3]; PKCbeta 1, 10 μM): 1%
inhibition at 10 µM [17]: 15%
inhibition at 10 µM [18]: 22%
inhibition at 10 µM [19]: 6%
inhibition at 10 µM [20]: 6%
inhibition at 10 µM [21]: -30%
inhibition at 10 µM [22]: 30%
inhibition at 10 µM [23]: 3%
inhibition at 10 µM [24]: 12%
inhibition at 10 µM [25]: -3%
inhibition at 10 µM [26]: 5%
inhibition at 10 µM [27]: 2%
inhibition at 10 µM [28]: -2%
GI50 ([4]; HCC1954, read-out: GI50 Range HCC1954): < 5 µM
